According to patent US12083123B2, “Method for the detection of drug-induced organ or tissue injury in IMPDH inhibitor treated patients” (University of Cincinnati, priority 2020, dated 2024):

Legend:
[1] = cited from earlier work
hepatic Kupffer cells = experiment: Mouse model treated with MMF by oral gavage: light microscopy of tissues, Kupffer cells and IMPDH2 expression; format: in vivo; settings: MMF 120 mg/kg daily for over two weeks by oral gavage
Method: To further study the potential changes caused by MMF treatment, an animal model (mouse) was used and treated with MMF 120 mg/kg daily for over two weeks by oral gavage. As a control, another group of mice was treated with the vehicle used for MMF. Among the issues investigated (e.g., liver, kidney, ovary, brain, white adipose and brown adipose tissues, pancreas, stomach, lung), a major change that is easily detected by light microscope (400× magnification) is pointed on hepatic Kupffer cells. […] In addition, IMPDH2 expression levels within the Kupffer cells were increased compared to MMF-untreated mouse liver.

mouse liver hepatocytes = experiment: Mouse study: liver histology and EM image analysis of MMF-treated vs untreated mice; format: in vivo
Method: The body weights of the mice were recoded every day. […] The rest of the mice were sacrificed on day 14 and a necropsy was performed on the surviving mice.
H&E and trichrome staining was performed on each liver sections from 3 MMF treated and 5 untreated mice at a CLIA-certified laboratory at CHLA.
Ultrastructural analysis was performed as described for human liver biopsies on the mouse liver tissue from the MMF treated and untreated mice. The EM images were captured digitally at the same magnification (18,000×). Thirty hepatocytes per mouse liver are selected randomly and the numbers of the mitochondria and lipid droplets were counted per hepatocytes using the digital images. In addition, the greatest dimensions of randomly selected 50 mitochondria per hepatocytes from each mouse were measured using an image analysis software, Cellsens® (Olympus, Tokyo, Japan).
The numbers of the mitochondria and the lipid droplets and the sizes of the mitochondria of the hepatocytes from MMF treated and untreated mice were compared by repeated measures mixed model analysis, with […] as a random effect and group as fixed, at a 0.005 significance level, using Prism8 software (Graphpad Software, San Diego, CA, USA).

transplanted liver = experiment: Transplant liver biopsies (histology, EM, LFTs) of liver transplant recipients treated with MMF; format: in vivo, human
Method: One biopsy from a patient (Case 4) was performed for surveillance purpose. Ultrastructural analysis included obtaining a small portion of the liver biopsies and post-fixing in osmium tetroxide and embedded in epoxy resin. Ultra-thin sections were stained with uranyl acetate/lead citrate. Detailed evaluation was made using Morgagni transmission electron microscope (EM, FEI, Hillsboro, OR). 2 H&E (hematoxylin and eosin) and 5 special (1 each for PAS, PASD, reticulin, iron and trichrome) stained slides were used per biopsy. ACR was diagnosed and scored using the Rejection Activity Index (RAI), which included: 1) portal inflammation (score 1-3), 2) bile duct damage (score 1-3), and 3) venous endothelial inflammation (score 1-3). Each score was added (RAI) and the degree of ACR was scored as follows: RAI=0-9; <3: borderline/indeterminate ACR, 3-4: mild ACR, 5-7: moderate ACR and >7: severe ACR. (Banff; 1997). Nonspecific hepatocellular injury is often referred to “reactive changes”. Histologic features of “reactive changes” include enlarged hepatocytes with hydropic changes (expanded, pale to clear cytoplasm) and coarse eosinophilic granules (e.g. mega-mitochondria), and nuclei with anisonucleosis and bi- and multi-nucleation, cholestasis, steatosis and necrosis. Necrosis can range from single cell necrosis (acidophil bodies) to rarely broad necrosis with collapsed lobules.

Kupffer cells = experiment: Human liver specimens from MMF-treated patients: macrophages in livers (Kupffer cells); format: in vivo
[2] = test system: WT-PI5P4Kβ/Pip4K2b−/− cells; experiment: Lysosomal acidification in serum starved WT-PI5P4Kβ/Pip4K2b−/− cells; format: cell-based; settings: MPA treatment for 2 h
[3] = the 11 patients with elevated LFTs
[4] = EM image analysis, MMF-treated for 14 days vs untreated group
[5] = Case 1-3, liver transplant recipients treated with MMF

Row | SMILES | patients with elevated LFTs ([1]; of 79 renal transplant recipients treated with MMF) [%] | abnormal LFTs after reduction or withdrawal of MMF ([1]; renal transplant recipients with elevated LFTs) | ALT, median and range [1, 3] | AST, median and range [1, 3] | changes in the other tissues by standard light microscopic analysis (hepatic Kupffer cells; kidney, ovary, brain, adipose tissues, pancreas, stomach, lung) | Kupffer cell size and numbers (hepatic Kupffer cells; light microscope 400×, vs vehicle) | IMPDH2 expression levels within the Kupffer cells (hepatic Kupffer cells; vs MMF-untreated mouse liver) | degree of mitochondrial pleomorphism (size differences) in the hepatocytes (mouse liver hepatocytes; [4]) | numbers of lipids (lipid droplets) in the hepatocytes (mouse liver hepatocytes; [4]) | numbers of mitochondria in the hepatocytes (mouse liver hepatocytes; [4]) | death during treatment (mouse liver hepatocytes; MMF treated group, 14 day treatment) | liver histology (H&E) (mouse liver hepatocytes; MMF-treated for 14 days vs untreated mice) | electron microscopy (EM) finding in transplant liver biopsies (transplanted liver; [5]) | histology of transplant liver biopsies (transplanted liver; [5]) | LFTs after stopping or reducing MMF (transplanted liver; Case 1 and 2) | number and size of macrophages in livers (Kupffer cells) (Kupffer cells) | lysosomal acidification [2]
1 | COc1c(C)c2c(c(O)c1C/C=C(\C)CCC(=O)OCCN1CCOCC1)C(=O)OC2 [MMF, mycophenolate mofetil] | 13.9 | normalized | 222.0 (51-508) U/L | 83.0 (50-123) U/L | did not show any significant changes | enlarged (hyperplasia/activated) and increased in their numbers | increased | significantly increased | significantly increased | significantly increased | Two mice in the MMF treated group died | no recognizable differences | mitochondrial pleomorphism and crystalloid inclusions | only mild nonspecific hepatocellular injury | improved | significant increase | –
2 | COc1c(C)c2c(c(O)c1C/C=C(\C)CCC(=O)O)C(=O)OC2 [MPA, mycophenolic acid] | – | – | – | – | – | – | – | – | – | – | – | – | – | – | – | – | suppressed lysosomal acidification
